Like-named read-outs stand apart in the source and are kept apart here.
Columns and labels:
[1] = biological target: T1, MT2 receptor (Homo sapiens, UniProt P49286); experiment: Competitive [3H]melatonin binding assay, MT2; design: expressed in transfected cells; settings: displacement of 1 nM [3H]melatonin
T1 sequence (P49286 1-362): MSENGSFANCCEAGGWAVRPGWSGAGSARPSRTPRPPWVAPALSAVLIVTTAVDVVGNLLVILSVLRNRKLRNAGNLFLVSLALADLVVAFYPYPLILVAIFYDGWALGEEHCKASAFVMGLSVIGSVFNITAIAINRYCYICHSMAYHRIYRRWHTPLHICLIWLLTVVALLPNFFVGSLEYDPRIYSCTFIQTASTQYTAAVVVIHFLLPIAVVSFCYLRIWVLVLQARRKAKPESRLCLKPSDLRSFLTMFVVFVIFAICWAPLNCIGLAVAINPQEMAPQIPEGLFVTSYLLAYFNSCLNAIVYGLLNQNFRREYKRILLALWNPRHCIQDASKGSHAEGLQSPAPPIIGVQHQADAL
Description: Competitive ligand binding assays were performed to examine the receptor binding characteristics of the novel isoquinolone compounds. The assay measures the ability of the novel isoquinolone compounds to bind and displace the radiolabelled endogenous ligand, [^3H]melatonin. Increasing concentrations of the novel compounds are added to displace the [^3H]melatonin-bound to MT1 or MT2 receptor-expressing cells.
4. Competitive Binding Assay
The ability of compounds to bind to MT1 and/or MT2 receptors is determined using radioligand binding assays. […] 48 hours following transfection, cells are harvested in binding buffer (50 mM Tris-HCl, 2 mM MgCl2, 1 mM EDTA, pH 7.4). 100,000 cells are incubated with 1 nM [^3H] melatonin (specific activity: 83 Ci/mmol; GE Healthcare) and appropriate concentrations (0.1 nM to 1 μM) of unlabelled ligands in a total volume of 100 μl in 96-well plates (PerkinElmer Life And Analytical Sciences, Inc., Boston, Mass.) for 2 hours at room temperature. Reactions are terminated by rapid filtration through a 96-well cell harvester onto 96-well GF/C filter mats. Filters are washed with 500 μl of ice-cold binding buffer, dried and sealed in a polyethylene bag with 3.5 ml of scintillation fluid and counted for tritium in a Microbeta Jet scintillation counter. […] Data are analyzed by nonlinear least-squares regression using GraphPad Prism 3.02.

[2] = tested on: Parental 293; experiment: MTT cytotoxicity assay, parental 293 cells; type: cell-based; settings: percentage of untreated control cells
Description: This assay evaluates the cytotoxic effects of the novel isoquinolone compounds based on the cellular viability under chronic treatments. Viable cells but not dead cells can turn the substrate into a colored product, which yields higher absorbance. […] A low percentage indicates low cytoviability (or high cytotoxicity).
5. Cytotoxicity Test Using MTT Assay
Cells were seeded into clear 96-well plate at an appropriate density in 100 μl growth medium and were allowed to grow overnight. The novel isoquinolone compounds were diluted to desired concentrations using fresh growth medium, and these dilutions were used to replace the growth media in each well. After incubating for 24-96 h, 10 μl of the MTT labeling reagent (Roche) was added to each well and the cells were incubated in a CO2 incubator for 4 h. 100 μl solubilization buffer was then added into each well and incubated overnight for complete solubilization of the purple formazan crystals. […] Each condition was performed in triplicate in every experiment and the results were expressed as % of blank control±SD.

[3] = biological target: MT1 receptor (Homo sapiens, UniProt P48039); experiment: ERK phosphorylation assay, MT1; type: cell-based; design: expressed in transfected cells; settings: HEK293 cells; isoquinolone 1 μM or 2-iodomelatonin 100 nM, 5 min; against unstimulated control cells
MT1 receptor, sequence (P48039 whole entry): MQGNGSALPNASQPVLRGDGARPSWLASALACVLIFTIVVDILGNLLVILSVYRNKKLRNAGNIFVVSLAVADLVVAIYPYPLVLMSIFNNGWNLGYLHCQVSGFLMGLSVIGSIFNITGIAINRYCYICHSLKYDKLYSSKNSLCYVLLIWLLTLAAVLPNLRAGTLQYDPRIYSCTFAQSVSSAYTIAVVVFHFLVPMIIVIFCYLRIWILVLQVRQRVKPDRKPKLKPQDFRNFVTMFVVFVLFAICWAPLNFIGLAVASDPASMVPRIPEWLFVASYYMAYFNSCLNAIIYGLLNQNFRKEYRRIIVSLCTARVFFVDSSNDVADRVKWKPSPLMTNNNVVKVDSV
Source text: 3. ERK Phosphorylation Assay This assay indicates the ability of the novel compounds to activate MT1 or MT2 receptors by measuring downstream events of the activated receptor, in this case ERK phosphorylation. The amount of phosphorylated ERK1/2 was detected and quantified in western blots. The data in Table 2 is expressed as the fold stimulation against the unstimulated control cells. 6. Detection of ERK phosphorylation […] Stimulation was terminated by aspiration on ice and immediate lysis by 200 μl of 1× protein gel loading buffer. Lysates were denatured by boiling for 5 min and cooled at room temperature until loading. 30 μl of each lysate was separated on 12% SDS-PAGE and transferred to nitrocellulose membrane by electroblotting. Success of transfer was visualized by Ponceau S staining. All subsequent incubations were under gentle agitation (˜100 strokes/min). […] Primary antisera against phosphorylated- or total-ERK1/2 were incubated with the blocked membrane at an appropriate dilution (1:4000-1:2000) in Blotto for overnight at 4° C. The membrane was washed with fresh Blotto for 3 times of 15 min each, then incubated with secondary antiserum (horseradish peroxidase-conjugated anti-rabbit IgG) at the dilution of 1:1000 in 1×TBS for 1 h at room temperature. The membrane was quickly rinsed with excessive 1×TBS for 3 times, and followed by 4 washes of 1×TBS for 10 min. By the end, a premix of luminol-based chemiluminescence substrate solution was prepared (1 ml for every 8 cm^2 of membrane) and overlaid onto the washed membrane to incubate for 1 min. After removing excessive solution, the membrane was covered with saran wrap and an autograph with appropriate exposure was developed on X-ray film in dark room. The image was scanned and the band intensities quantified using ImageJ 1.34. Data was expressed as the percentage response of the vehicle-treated or untreated samples. Experiments were performed at least 3 times and the average responses±SEM were presented.

[4] = HEK-293 cells, log value, negative, NSB = No significant binding
[5] = unit inferred, read-out: Binding Assay MT2 IC50

Row | SMILES | Binding Assay MT2 logIC50 ± SEM [1, 4] | MTT Assay Parental 293 % Viability ± SEM [2] | ERK Phosphorylation MT1 Fold Stim. [3] | IC50 [1, 5] | IC50 ([1]; HEK-293 cells, log value, negative, NSB = No significant binding, read-out: Binding Assay MT2 logIC50 ± SEM (converted))
1 | Cn1ccc2cc(OC(=O)c3ccccc3)c(OC(=O)c3ccccc3)cc2c1=O [IS039] | NSB | 104.9 ± 4.8% | 2.75 Fold | – | –
2 | COc1cc(COc2cc3ccn(C)c(=O)c3cc2OC)cc(OC)c1 [IS042] | NSB | 60.7 ± 0.4% | 4.94 Fold | – | –
3 | COc1cccc(COc2cc3ccn(C)c(=O)c3cc2OC)c1 [IS044] | – | 78.6 ± 5.8% | 3.25 Fold | – | –
4 | COc1cccc(COc2cc3c(=O)n(C)ccc3cc2OC)c1 [IS521] | – | 66.1 ± 4.9% | 3.80 Fold | 145 nM | –
5 | COc1cc(COc2cc3c(=O)n(C)ccc3cc2OC)cc(OC)c1 [IS523] | NSB | 37.5 ± 0.9% | 3.74 Fold | – | –
6 | COc1cc2ccn(C)c(=O)c2cc1OCc1ccc(C(C)(C)C)cc1 [IS526] | NSB | 27.5 ± 18.9% | – | – | –
7 | COc1cccc(COc2c(OC)ccc3c(=O)n(C)ccc23)c1 [IS527] | – | 36.8 ± 0.0% | 2.47 Fold | 108 nM | 117 nM
8 | COc1cc(COc2c(OC)ccc3c(=O)n(C)ccc23)cc(OC)c1 [IS528] | NSB | 32.2 ± 2.3% | 1.73 Fold | – | –
9 | COc1ccc2c(=O)n(C)ccc2c1OCc1ccc(C)cc1 [IS529] | NSB | 35.9 ± 0.4% | 2.37 Fold | – | –
